What was measured:
[1] = system: mouse leukemia L1210 cells; test: Growth inhibition test on cultured mouse leukemia L1210 cells; assay type: cell-based; details: RPMI 1640 with 10% fetal calf serum
Description: Mouse leukemia L1210 cells were cultured in a RPMI 1640 medium containing 10% of fetal calf serum.

mouse leukemia L1210 = test: Antitumor activity test on mouse leukemia L1210 in vivo; details: for max (T/C): L1210, average survival time treated/control ×100, i.p. once a day for 5 days; for Opt. dose: L1210, dose giving max (T/C); for Opt. dose / LD50: i.p. once a day for 5 days; for LD50: L1210-bearing CDF1 mice
Description: Mice of compound-non-treated group (control group) were administered with physiological saline solution in the same manner. The average survival times of the compound-treated group and the control group (abbreviated as T and C, respectively) were measured and T/C percentage (T/C×100) was calculated from the following equation. [formula]
In Table 4, max (T/C) means the maximum value of T/C and optimum dose (opt. dose) means an administration amount giving the max namely, an optimum administration amount.

| Structure (SMILES) | IC50 [1] [µg/mL] | max (T/C) (mouse leukemia L1210) [%] | Opt. dose (mouse leukemia L1210) [mg/kg] | LD50 (mouse leukemia L1210) [mg/kg] | Solubility in physiological saline solution [mg/ml] | Solubility in water [µg/mL] |
| --- | --- | --- | --- | --- | --- | --- |
| CC1CCC[NH2+][Pt-2]([Cl])([Cl])[NH2+]1 (racemic) [Compound No. 4] | 0.20 | 225 | 2 | 2.4 | > 2 | – |
| CC1CCC[NH2+][Pt-2]2([NH2+]1)[O]C(=O)C(C)(C)C(=O)[O]2 (racemic) [Compound No. 8, cis-Dimethylmalonato-1-methyl-1,4-butanediamine platinum] | 0.90 | 189 | 64 | – | – | – |
| CCC1C(=O)[O][Pt-2]2([NH2+]CCCC(C)[NH2+]2)[O]C1=O (racemic) [Compound No. 9, cis-Ethylmalonato-1-methyl-1,4-butanediamine platinum] | 2.40 | 222 | 64 | 96.0 | – | > 10000 |
| CCC1CCC[NH2+][Pt-2]([Cl])([Cl])[NH2+]1 (racemic) [Compound No. 10, cis-Dichloro-1-ethyl-1,4-butanediamine platinum] | 0.35 | 210 | 4 | 6.0 | > 2 | – |
| CC1CC[NH2+][Pt-2]([Cl])([Cl])[NH2+]C1 (racemic) [Compound No. 13, cis-Dichloro-2-methyl-1,4-butanediamine platinum] | 0.10 | 187 | 2 | 4.2 | > 2 | – |
| CC1CC[NH2+][Pt-2]2([NH2+]C1)[O]C(=O)CC(=O)[O]2 (racemic) [Compound No. 14, cis-Malonato-2-methyl-1,4-butanediamine platinum] | 0.74 | 346 | 32 | – | – | – |
| CC1CC[NH2+][Pt-2]2([NH2+]C1)[O]C(=O)C1(CCOCC1)C(=O)[O]2 (racemic) [Compound No. 16, cis-4-Oxacyclohexane-1,1-dicarboxylato-2-methyl-1,4-butanediamine platinum] | 0.43 | 167 | 8 | 12.0 | – | > 15000 |
| CC1CC[NH2+][Pt-2]2([NH2+]C1)[O]C(=O)C(C)(C)C(=O)[O]2 (racemic) [Compound No. 17, cis-Dimethylmalonato-2-methyl-1,4-butanediamine platinum] | 0.50 | 238 | 32 | – | – | – |
| CCC1C(=O)[O][Pt-2]2([NH2+]CCC(C)C[NH2+]2)[O]C1=O (racemic) [Compound No. 18, cis-Ethylmalonato-2-methyl-1,4-butanediamine platinum] | 0.84 | 264 | 16 | 24.0 | – | > 10000 |
| CCC1CC[NH2+][Pt-2]([Cl])([Cl])[NH2+]C1 (racemic) [Compound No. 29, cis-Dichloro-2-ethyl-1,4-butanediamine platinum] | 0.05 | 261 | 2 | 3.0 | > 2 | – |
| CCC1CC[NH2+][Pt-2]2([NH2+]C1)[O]C(=O)C(=O)[O]2 (racemic) [Compound No. 30, cis-Oxalato-2-ethyl-1,4-butanediamine platinum] | 0.06 | 253 | 8 | – | – | – |
| CCC1CC[NH2+][Pt-2]2([NH2+]C1)[O]C(=O)C(C)(C)C(=O)[O]2 (racemic) [Compound No. 33, cis-Dimethylmalonato-2-ethyl-1,4-butanediamine platinum] | 0.23 | – | – | – | – | – |
| O=C1[O][Pt-2]2([NH2+]CCCC[NH2+]2)[O]C(=O)C12CCC2 [Compound No. 2, cis-Cyclobutane-1,1-dicarboxylato-1,4-butanediamine Platinum] | 0.88 | 182 | 32 | 48.0 | – | – |
| CC(N)CCCN.O=C([O-])C(=O)[O-].[Pt+2] (stereo not drawn) [Compound No. 5, cis-Oxalato-1-methyl-1,4-butanediamine platinum] | 0.29 | 273 | 4 | – | – | – |
| CC(N)CCCN.O=C([O-])CC(=O)[O-].[Pt+2] (stereo not drawn) [Compound No. 6, cis-Malonato-1-methyl-1,4-butanediamine platinum] | 0.76 | 359 | 32 | – | – | – |
| CC(N)CCCN.O=C([O-])C1(C(=O)[O-])CCC1.[Pt+2] [Compound No. 7, cis-Cyclobutane-1,1-dicarboxylato-1-methyl-1,4-butanediamine platinum] | 2.80 | 176 | 64 | – | – | – |
| CCC(N)CCCN.O=C([O-])C1(C(=O)[O-])CCOCC1.[Pt+2] [Compound No. 12, cis-4-Oxacyclohexane-1,1-dicarboxylato-1-ethyl-1,4-butanediamine platinum] | 1.05 | 181 | 64 | – | – | – |
| CC1(C)CC[NH2+][Pt-2]2([NH2+]C1)[O]C(=O)C(=O)[O]2 [Compound No. 20, cis-Oxalato-2,2-dimethyl-1,4-butanediamine platinum] | 0.37 | 272 | 8 | – | – | – |
| CC1(C)CC[NH2+][Pt-2]2([NH2+]C1)[O]C(=O)CC(=O)[O]2 [Compound No. 21, cis-Malonato-2,2-dimethyl-1,4-butanediamine platinum] | 0.72 | 301 | 32 | – | – | – |
| CC1(C)CC[NH2+][Pt-2]2([NH2+]C1)[O]C(=O)C(C)(C)C(=O)[O]2 [Compound No. 24, cis-Dimethylmalonato-2,2-dimethyl-1,4-butanediamine platinum] | 0.78 | 253 | 64 | – | – | – |
| CC1(C)CCC[NH2+][Pt-2]2([NH2+]1)[O]C(=O)C(=O)[O]2 [Compound No. 26, cis-Oxalato-1,1-dimethyl-1,4-butanediamine platinum] | 0.30 | – | – | – | – | – |
| CC1(C)CCC[NH2+][Pt-2]2([NH2+]1)[O]C(=O)C1(CCC1)C(=O)[O]2 [Compound No. 27, cis-Cyclobutane-1,1-dicarboxylato-1,1-dimethyl-1,4-butanediamine platinum] | – | – | – | – | – | > 10000 |
| CC(C)(C(=O)[O-])C(=O)[O-].CC(C)(N)CCCN.[Pt+2] [Compound No. 28, cis-Dimethylmalonato-1,1-dimethyl-1,4-butanediamine platinum] | 4.50 | – | – | – | – | – |
| CCC(CN)CCN.O=C([O-])CC(=O)[O-].[Pt+2] (stereo not drawn) [Compound No. 31, cis-Malonato-2-ethyl-1,4-butanediamine platinum] | 0.66 | – | – | – | – | – |
| CCC(CN)CCN.O=C([O-])C1(C(=O)[O-])CCC1.[Pt+2] [Compound No. 32, cis-Cyclobutane-1,1-dicarboxylato-2-ethyl-1,4-butanediamine platinum] | 0.67 | 275 | 32 | – | – | – |
